Reference: article PMC10482691, “LTP induction by structural rather than enzymatic functions of CaMKII” (Nature, 2023)
Where “and” joins values, the source holds several entries; their conditions need not be identical. Identical values can stand only once.

Experiments:
CaMKI(h) = CaMKI(h) (Homo sapiens, UniProt Q14012); experiment: Kinase selectivity panel (residual activity at 1 μM); assay type: biochemical; settings: inhibitor at 1 μM; read-out: residual kinase activity in % of maximal activity
JAK3(h) = JAK3(h) (Homo sapiens, UniProt P52333); experiment: as above; assay type: biochemical; settings: inhibitor at 1 μM; read-out: residual kinase activity in % of maximal activity
purified CaMKII = purified CaMKII (Rattus norvegicus, UniProt P11275); experiment: In vitro kinase reaction: CaMKII phosphorylation of GST-2BC (GluN2B) S1303; assay type: biochemical
Experimental: CaMKII-mediated phosphorylation of GluA1 S831 or GluN2B S1303 was measured by in vitro kinase reaction with a purified GST–GluA1 C-terminal tail or GST-GluN2B C-terminal tail. Reactions contained 40 nM CaMKII, 1 μM GST–GluA1, 50 mM PIPES, pH 7.1, 2 mM CaCl2, 10 mM MgCl2, 1 μM calmodulin, 1–4 mM ATP and 1 μM okadaic acid. Negative controls were prepared without ATP. Reactions were done at 30 °C for 20 s; reactions were stopped by adding SDS loading buffer and incubation in a boiling water bath for 5 min. GST, phospho-S831, CaMKII, phospho-T286 or phospho-S1303 were detected in the samples by immunoblot analysis.
Extended Data Fig. 3 No difference in LTP in WT mice when CaMKII is inhibited by either 10 or 30 μM AS283. Data are presented as mean values +/− SEM. a, 2x HFS potentiates the CA3-CA1 Schaffer collateral pathway in WT mice when CaMKII enzymatic activity is inhibited by 10 or 30 μM AS283 (incubated for 15 min prior to HFS, and washed out 5 min after). b, Quantification of LTP in WT mice after 10 or 30 μM AS283 (n = 3,7 hippocampal slices; Mann-Whitney test). p = 0.3833. c, Representative immunoblot and quantification of CaMKII T286 phosphorylation in dissociated hippocampal cultures after cLTP and inhibition by 10 μM AS283 (n = 4 independent cell preparations; one-way ANOVA, Tukey’s multiple comparisons test). […]

CaMKIIγ(h) = CaMKIIγ(h) (Homo sapiens, UniProt Q13555); experiment: Kinase selectivity panel (residual activity at 1 μM); assay type: biochemical; settings: inhibitor at 1 μM; read-out: residual kinase activity in % of maximal activity
CaMKIIδ(h) = CaMKIIδ(h) (Homo sapiens, UniProt Q13557); experiment: as above; assay type: biochemical; settings: inhibitor at 1 μM; read-out: residual kinase activity in % of maximal activity
PDGFRβ(h) = PDGFRβ(h) (Homo sapiens, UniProt P09619); experiment: as above; assay type: biochemical; settings: inhibitor at 1 μM; read-out: residual kinase activity in % of maximal activity
[1] = test system: GFP–CaMKII K42M in rat hippocampal neurons; experiment: cLTP-induced CaMKII synaptic enrichment in dissociated hippocampal cultures (GFP–CaMKII K42M); assay type: cell-based; settings: sheet 4e

Sequence of CaMKIIδ(h) (Q13557 whole entry): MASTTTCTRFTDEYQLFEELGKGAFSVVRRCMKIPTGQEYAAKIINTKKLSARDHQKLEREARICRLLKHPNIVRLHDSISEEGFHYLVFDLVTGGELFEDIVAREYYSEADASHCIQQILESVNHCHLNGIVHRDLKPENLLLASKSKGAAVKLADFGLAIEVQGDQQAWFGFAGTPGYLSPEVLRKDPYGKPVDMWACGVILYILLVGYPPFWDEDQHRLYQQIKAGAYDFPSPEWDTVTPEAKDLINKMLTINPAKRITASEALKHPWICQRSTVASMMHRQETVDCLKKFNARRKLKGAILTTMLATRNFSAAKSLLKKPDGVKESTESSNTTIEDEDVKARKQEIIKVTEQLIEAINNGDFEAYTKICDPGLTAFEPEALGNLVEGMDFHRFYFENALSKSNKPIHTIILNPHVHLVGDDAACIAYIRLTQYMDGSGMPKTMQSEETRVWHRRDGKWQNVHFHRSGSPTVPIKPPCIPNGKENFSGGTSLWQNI
Sequence of JAK3(h) (P52333 whole entry): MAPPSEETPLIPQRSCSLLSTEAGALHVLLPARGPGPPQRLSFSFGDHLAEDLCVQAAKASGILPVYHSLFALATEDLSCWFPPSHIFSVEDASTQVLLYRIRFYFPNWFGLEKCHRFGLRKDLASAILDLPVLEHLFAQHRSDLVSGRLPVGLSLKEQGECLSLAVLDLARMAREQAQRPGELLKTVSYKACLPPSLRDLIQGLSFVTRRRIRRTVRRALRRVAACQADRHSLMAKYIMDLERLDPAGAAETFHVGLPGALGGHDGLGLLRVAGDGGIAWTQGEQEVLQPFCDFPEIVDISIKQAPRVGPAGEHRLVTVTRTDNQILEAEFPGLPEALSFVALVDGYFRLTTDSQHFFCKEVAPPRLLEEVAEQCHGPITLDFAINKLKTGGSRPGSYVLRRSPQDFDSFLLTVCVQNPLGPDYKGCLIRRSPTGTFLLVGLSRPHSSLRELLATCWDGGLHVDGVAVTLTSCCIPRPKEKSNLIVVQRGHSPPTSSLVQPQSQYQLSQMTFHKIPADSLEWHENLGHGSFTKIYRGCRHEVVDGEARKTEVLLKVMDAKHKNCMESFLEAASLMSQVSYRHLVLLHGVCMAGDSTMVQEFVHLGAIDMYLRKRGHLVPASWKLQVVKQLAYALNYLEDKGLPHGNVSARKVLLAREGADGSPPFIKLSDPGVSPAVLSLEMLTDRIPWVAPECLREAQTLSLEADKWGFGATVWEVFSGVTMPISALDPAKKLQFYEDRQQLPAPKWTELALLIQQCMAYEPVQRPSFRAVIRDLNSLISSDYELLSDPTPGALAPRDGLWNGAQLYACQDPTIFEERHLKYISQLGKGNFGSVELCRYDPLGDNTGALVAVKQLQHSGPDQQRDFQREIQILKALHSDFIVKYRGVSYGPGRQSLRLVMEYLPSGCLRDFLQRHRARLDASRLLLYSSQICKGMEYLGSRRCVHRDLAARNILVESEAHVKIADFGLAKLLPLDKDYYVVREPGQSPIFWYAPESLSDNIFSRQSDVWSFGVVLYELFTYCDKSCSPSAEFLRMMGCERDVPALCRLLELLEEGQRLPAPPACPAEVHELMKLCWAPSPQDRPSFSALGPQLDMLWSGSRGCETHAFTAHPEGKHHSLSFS
Sequence of CaMKI(h) (Q14012 whole entry): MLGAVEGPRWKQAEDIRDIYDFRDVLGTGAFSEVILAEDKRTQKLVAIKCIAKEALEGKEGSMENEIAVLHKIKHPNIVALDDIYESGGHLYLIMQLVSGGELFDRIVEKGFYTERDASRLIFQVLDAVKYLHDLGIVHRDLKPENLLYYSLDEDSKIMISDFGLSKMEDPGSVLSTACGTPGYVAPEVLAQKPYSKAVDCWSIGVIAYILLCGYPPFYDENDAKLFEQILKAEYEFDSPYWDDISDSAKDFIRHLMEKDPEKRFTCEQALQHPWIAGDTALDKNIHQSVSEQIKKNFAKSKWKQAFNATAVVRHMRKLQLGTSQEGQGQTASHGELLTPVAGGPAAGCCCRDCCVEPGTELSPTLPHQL
Sequence of PDGFRβ(h) (P09619 33-1106): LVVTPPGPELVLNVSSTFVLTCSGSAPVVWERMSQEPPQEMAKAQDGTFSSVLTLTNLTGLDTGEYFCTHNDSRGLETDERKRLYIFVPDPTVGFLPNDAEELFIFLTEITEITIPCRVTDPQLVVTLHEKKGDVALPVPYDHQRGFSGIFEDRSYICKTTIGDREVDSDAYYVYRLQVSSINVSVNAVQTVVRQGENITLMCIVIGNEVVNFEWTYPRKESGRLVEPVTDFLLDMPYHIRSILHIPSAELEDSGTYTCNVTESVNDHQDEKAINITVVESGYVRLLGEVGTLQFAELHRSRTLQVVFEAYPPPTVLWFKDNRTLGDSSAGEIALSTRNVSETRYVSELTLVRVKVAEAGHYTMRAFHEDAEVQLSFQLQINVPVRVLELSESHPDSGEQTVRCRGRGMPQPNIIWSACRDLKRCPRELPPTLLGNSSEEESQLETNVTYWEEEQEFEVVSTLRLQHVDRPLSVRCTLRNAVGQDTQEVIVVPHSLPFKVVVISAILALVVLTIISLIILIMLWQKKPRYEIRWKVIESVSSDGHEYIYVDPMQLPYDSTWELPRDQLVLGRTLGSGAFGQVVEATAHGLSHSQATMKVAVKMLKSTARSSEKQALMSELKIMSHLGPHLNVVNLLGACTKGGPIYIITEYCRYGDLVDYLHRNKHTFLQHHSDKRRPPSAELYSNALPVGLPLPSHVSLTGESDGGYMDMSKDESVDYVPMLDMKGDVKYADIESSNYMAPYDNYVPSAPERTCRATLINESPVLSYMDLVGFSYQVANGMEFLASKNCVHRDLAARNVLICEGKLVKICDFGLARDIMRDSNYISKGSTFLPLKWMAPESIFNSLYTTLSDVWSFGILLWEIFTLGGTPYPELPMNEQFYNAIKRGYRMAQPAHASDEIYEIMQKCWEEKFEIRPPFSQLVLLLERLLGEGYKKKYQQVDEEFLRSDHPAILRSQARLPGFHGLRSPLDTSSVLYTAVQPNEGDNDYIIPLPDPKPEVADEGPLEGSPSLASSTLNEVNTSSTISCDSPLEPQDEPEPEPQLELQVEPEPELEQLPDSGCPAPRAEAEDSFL
Sequence of CaMKIIγ(h) (Q13555 whole entry): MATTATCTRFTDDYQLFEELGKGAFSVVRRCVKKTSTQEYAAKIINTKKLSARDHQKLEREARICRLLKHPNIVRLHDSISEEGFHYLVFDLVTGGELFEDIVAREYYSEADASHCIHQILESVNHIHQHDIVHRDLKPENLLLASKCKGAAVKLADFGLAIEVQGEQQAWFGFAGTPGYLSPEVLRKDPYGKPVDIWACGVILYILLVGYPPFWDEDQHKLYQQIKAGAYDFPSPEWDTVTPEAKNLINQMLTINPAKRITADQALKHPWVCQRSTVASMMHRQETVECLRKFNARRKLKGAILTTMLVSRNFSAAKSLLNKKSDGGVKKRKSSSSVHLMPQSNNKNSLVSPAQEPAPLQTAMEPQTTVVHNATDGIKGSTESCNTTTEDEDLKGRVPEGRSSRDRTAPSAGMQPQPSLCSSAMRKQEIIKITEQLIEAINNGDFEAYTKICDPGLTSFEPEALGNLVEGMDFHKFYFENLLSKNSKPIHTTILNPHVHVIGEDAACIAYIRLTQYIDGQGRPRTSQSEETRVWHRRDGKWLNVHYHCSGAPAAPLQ

| SMILES | remaining activity at 1 µM (CaMKI(h)) [%] | remaining activity at 1 µM (JAK3(h)) [%] | GluN2B S1303 phosphorylation (immunoblot, normalized) (purified CaMKII; ATP + 10 μM AS283, 30 °C) | effect on CaMKII-mediated S1303 phosphorylation (purified CaMKII; WT GluN2B C terminus) | remaining activity at 1 µM (CaMKIIγ(h)) [%] | remaining activity at 1 µM (CaMKIIδ(h)) [%] | remaining activity at 1 µM (PDGFRβ(h)) [%] | CaMKII synaptic enrichment ([1]; NMPP1, before cLTP, individual neurons) | CaMKII synaptic enrichment ([1]; after cLTP in NMPP1, individual neurons) |
| --- | --- | --- | --- | --- | --- | --- | --- | --- | --- |
| NCCNc1cccc(-c2ccnc3[nH]c4ccccc4c23)c1 [AS283] | 107 | 92 | 25.6775% and 36.949% and 34.6383% and 24.0932% | inhibited | 2 | 2 | 111 | – | – |
| CC(C)(C)n1nc(Cc2cccc3ccccc23)c2c(N)ncnc21 [NM-PP1] | – | – | – | – | – | – | – | 1.065 and 0.7915 and 0.7418 and 0.4255 and 0.8744 and 0.8871 | 1.554 and 1.155 and 0.8796 and 0.5587 and 1.358 and 1.0618 |
